# Tests used:
# [1] = test system: AMPA receptor; experiment: In vivo electrophysiology: amplitude of field EPSP in dentate gyrus of anesthetized animals
# Method: (§1) The electrophysiological effects of the invention compounds were tested in vivo in anesthetized animals according to the following procedures. Animals are maintained under anesthesia by phenobarbital administered using a Hamilton syringe pump. Stimulating and recording electrodes are inserted into the perforant path and dentate gyrus of the hippocampus, respectively. Once electrodes are implanted, a stable baseline of evoked responses are elicited using single monophasic pulses (100 μs pulse duration) delivered at 3/min to the stimulating electrode. Field EPSPs are monitored until a stable baseline is achieved (about 20-30 min), after which a solution of test compound is injected intraperitoneally and evoked field potentials are recorded. Evoked potentials were recorded for approximately 2 h following drug administration or until the amplitude of the field EPSP returns to baseline. In the latter instance, it is common that an iv administration is also carried out with an appropriate dose of the same test compound. Invention compounds were assayed in the in vivo electrophysiology assay described above and data for representative test compounds is shown in column 1 in Table 1.
# The electrophysiological effects of invention compounds were tested in vivo in anesthetized animals according to the following procedures.
# as §1, with “Animals” for “The electrophysiological effects of the invention compounds were tested in vivo in anesthetized animals according to the following procedures. Animals”, “are” for “were”, “compound.” for “compound. Invention compounds were assayed in the in vivo electrophysiology assay described above and data for representative test compounds is shown in column 1 in Table 1.”
# [2] = test system: Male CD1 mice; experiment: Inhibition of d-Amphetamine stimulated locomotion; type: in vivo; settings: 18 mpk i.p., d-amphetamine 2 mg/kg
# Method: The ability of the invention compounds to inhibit d-Amphetamine stimulated locomotor activity was assayed according to the following procedure. Male CD1 mice, 25-30 gm body o weight, were brought into the experimental room and allowed at least 30 min of acclamation.
# Each mouse was placed into the testing enclosure with an infrared beam array that automatically monitors the animal's activity. Mice were habituated in the testing enclosure for 20 min, and then returned to their home cage. Mice were dosed intraperitoneally with test compound in appropriate vehicle 5 minutes before d-Amphetamine injection (2 mpk). Ten minutes after d-Amphetamine injection, mice were tested for locomotor activity for a total of 15 minutes. The data was computer collected and expressed as “arbitrary movement units.” All data were analyzed by comparing the groups treated with the test compound to the vehicle control group. The data shown is the % inhibition of hyperactivity induced by acute administration of 2 mg/kg d-amphetamine in mice. […]
# Male CD1 mice, 25-30 gm body weight, were brought into the experimental room and allowed at least 30 min of acclamation. […] The data was computer collected and expressed as “arbitrary movement units.” All data were analyzed by comparing the groups treated with the test compound to the vehicle control group.
melting point [°C],Structure (SMILES),% increase in the amplitude of the field EPSP in the dentate gyrus of rat ([1]; dosed i.v.) [%^3],% Inhibition of d-amphetamine stimulated locomotion [2] [%],% increase in the amplitude of the field EPSP in the dentate gyrus of rat ([1]; 10 mpk i.p.) [%]
92 to 93,"O=C(c1ccc2nonc2c1)N1CC2CCC1C2 (stereo not drawn) [Example 7, 2-Azabicyclo[2.2.1]hept-2-yl([2,1,3]-benzoxadiazol-5-yl)methanone]",20,–,–
176 to 177,O=C(c1ccc2nonc2c1)N1C2CCC1CC(O)C2 (stereo not drawn) [6],–,–,–
138 to 139,"O=C(c1ccc2nonc2c1)N1CC2CCC1CC2 [Example 9, 2-Azabicyclo[2.2.2]oct-2-yl([2,1,3]-benzoxadiazol-5-yl)methanone]",–,–,–
156 to 157,"O=C(c1ccc2nonc2c1)N1CC2CC1C(Cl)C2Cl (stereo not drawn) [Example 14, [2,1,3]-Benzoxadiazol-5-yl(5,6-dichloro-2-azabicyclo[2.2.1]hept-2-yl)methanone]",–,–,–
169 to 171,O=C(c1ccc2nonc2c1)N1C2CCC1CC(O)C2 (stereo not drawn) [5],–,–,–
106 to 108,"O=C(c1ccc2nonc2c1)N1CC2C=CC1C2 (stereo not drawn) [Example 11, 2-Azabicyclo[2.2.1]hept-5-en-2-yl([2,1,3]-benzoxadiazol-5-yl)methanone]",–,–,–
102 to 104,"O=C(c1ccc2nonc2c1)N1CC2CC1CO2 (stereo not drawn) [Example 10, [2,1,3]-benzoxadiazol-5-yl(2-oxa-5azabicyclo[2.2.1]hept-5-yl)methanone]",–,–,–

# The remaining lines, values behind:
Structure (SMILES),melting point [°C],% increase in the amplitude of the field EPSP in the dentate gyrus of rat ([1]; dosed i.v.) [%^3],% Inhibition of d-amphetamine stimulated locomotion [2] [%],% increase in the amplitude of the field EPSP in the dentate gyrus of rat ([1]; 10 mpk i.p.) [%]
O=C(c1ccc2nonc2c1)N1C2CCC1CC2,143 to 144,–,–,–
"O=C(c1ccc2nonc2c1)N1C2CCCC1CC2 [Example 1, 8-Azabicyclo[3.2.1]oct-8-yl([2,1,3]-benzoxadiazol-5-yl)methanone]",128 to 130,–,69,22
"O=C1CC2CCC(C1)N2C(=O)c1ccc2nonc2c1 [Example 2, 8-([2,1,3]-Benzoxadiazol-5-ylcarbonyl)-8-azabicyclo[3.2.1]octan-3-one]",164 to 166,–,40,16
"O=C(c1ccc2nonc2c1)N1C2CCC1CC(F)(F)C2 [Example 3, [2,1,3]-Benzoxadiazol-5-yl(3,3-difluoro-8-azabicyclo[3.2.1]oct-8-yl)methanone]",165 to 166,–,–,8
"O=C(c1ccc2nonc2c1)N1C2C=C(F)CC1CC2 (stereo not drawn) [Example 4, [2,1,3]-benzoxadiazol-5-yl(3-fluoro-8-azabicyclo[3.2.1]oct-2-en-8-yl)methanone]",–,–,–,25

# Source: patent publication US8263591B2, “Bicyclic amides for enhancing glutamatergic synaptic responses” (Cortex Pharmaceuticals, Inc., priority 2007, dated 2012)
